Data taken from patent US8663934B2, “Cloned transmembrane receptor for 24-hydroxylated vitamin D compounds and uses thereof” (Shriners Hospital for Children, priority 2009, dated 2014).
Entries after “also recorded” stand apart in the source; their conditions may differ. Blank lines part the entries; values can stand above or below the molecule they belong to.

Assays:
Cyp24a1-deficient mice = experiment: Rescue of impaired fracture healing in Cyp24a1-deficient mice (tibial osteotomy); type: in vivo, mouse; conditions: for effect on fracture repair: daily subcutaneous injection, 24,25-(OH)2D3 6.7 μg/kg, 1α,25-(OH)2D3 67 ng/kg
Protocol: FIG. 2: rescue of impaired fracture repair in Cyp24a1-deficient mice by treatment with 24,25-(OH)2D3. Osteotomy was performed and animals from each genotype were treated daily with vehicle, 1,25-(OH)2D3 (67 ng/kg) or 24,25-(OH)2D3 (6.7 ug/kg). The fracture callus was harvested at 14 days post-osteotomy and bone volume (BV) and tissue volume (TV) were measured by histomorphometry using the BioQuant Osteo image analysis software. WT, wild-type; cyp24a1−/−, mutant mice deficient for the Cyp24a1 gene.
A Cyp24a1-deficient mouse strain was used to determine the role of 24-hydroxylated vitamin D compounds during mammalian fracture repair. In wild-type mice, there is a significant increase in local expression of Cyp24a1 mRNA in the tibiae subjected to an osteotomy as compared to the unfractured contralateral tibiae. To identify the role of this change in gene expression on callus formation, four-month-old wild-type and Cyp24a1-deficient mice were subjected to a stabilized, transverse mid-diaphysial fracture of the tibia. Bones were collected at days 14 and 21 post-fracture and analyzed for histology and gene expression.
Control groups were injected with the vehicle (propylene glycol). […] Daily injection with 24,25-(OH)2D3 normalized the histological appearance of the callus and the measured static histomorphometric index (BV/TV, FIG. 2).

chickens = conditions: chick fracture, treatment with metabolite alone; cited from earlier work
ATF response element = ATF response element luciferase reporter (Cignal AARE) in receptor-transfected COS7 cells; type: cell-based; conditions: saturating dose
Protocol: FIG. 5. Activation of the ATF response element following binding of 24,25(OH)2D to the 24-hydroxylated vitamin D compound receptor. COS7 cells stably transfected with an empty expression vector (vector) or with an expression vector for the 24-hydroxyvitamin D compound receptor (24,25(OH)2D rep) were transiently transfected with a reporter construct in which the luciferase reporter is under the control of an ATF response element. Transfected cells were then treated with ethanol (vehicle) or a saturating dose of 24,25(OH)2D. A renilla luciferase constitutive expression vector was co-transfected to assess efficiency of […]. Results (mean±SEM) are expressed as fold-induction over treatment with vehicle.
In certain embodiments of the present invention where the Cignal Finder reporter system is employed, COS-7 cells stably transfected with the 24-hydroxylated vitamin D compound receptor are seeded in 24-well tissue culture plates (Nunc, Roskilde, Denmark) at a density of 20,000 cells per well in growth medium (high-glucose DMEM with HEPES, 10% FBS, and 400 μg/ml of Geneticin). […] The activity of firefly and renilla luciferases are measured sequentially on a Sirius Luminometer (Berthold Detection Systems GmbH, Pforzheim, Germany). The specific luciferase activity is expressed as the ratio of firefly/renilla luciferase activity. […]

[1] = biological target: T1, 24-hydroxylated vitamin D compound receptor (Mus musculus, UniProt Q7TNV1); experiment: Cellular dielectric spectroscopy (CellKey) in COS7 cells stably transfected with the receptor; type: cell-based; conditions: range of compound concentrations
T1 construct: The full-length 24-hydroxylated vitamin D compound receptor was subcloned into the pcDNA3.1 expression vector; expressed in transfected cells; host or cells: COS-7 cells, stably transfected (pcDNA3.1)
T1 sequence (Q7TNV1 1-275 isoform Q7TNV1-3): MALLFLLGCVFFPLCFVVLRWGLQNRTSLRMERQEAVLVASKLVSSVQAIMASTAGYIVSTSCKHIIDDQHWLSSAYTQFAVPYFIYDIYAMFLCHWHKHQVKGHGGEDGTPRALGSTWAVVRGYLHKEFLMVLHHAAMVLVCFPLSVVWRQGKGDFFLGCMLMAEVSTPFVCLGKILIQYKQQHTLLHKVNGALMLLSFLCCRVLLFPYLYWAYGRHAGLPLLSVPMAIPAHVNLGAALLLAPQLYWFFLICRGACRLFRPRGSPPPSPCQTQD
Protocol: FIG. 4. Binding saturation and specificity of the 24-hydroxylated vitamin D compound receptor. A, B. The full-length 24-hydroxylated vitamin D compound receptor was subcloned into the pcDNA3.1 expression vector and expressed by stable transfection into COST cells. Membrane fractions were prepared by differential centrifugation and binding assays were performed using [^3H]-24,25(OH)2D3 in the presence or absence of an excess of nonradioactive 24,25(OH)2D3. Bound and free ligand were separated by filtration on glass microfiber filters. […] C, D. COS7 cells stably transfected with an expression vector for the 24-hydroxylated vitamin D compound receptor were plated in a cellular dielectric spectroscopy apparatus and changes in bioimpedance (dZiec), representative of binding, were measured over a range of compound concentrations. C. Response to vitamin D compounds. D. Response to steroids.
In certain embodiments of the present invention, cellular dielectric spectroscopy is used to ascertain binding specificity (124). The technology is based on applying electrical current to cells within a microplate format and measuring changes in impedance. […] The plate is installed onto the system to obtain a baseline reading. […]
Another method used to ascertain binding specificity is cellular dielectric spectroscopy (124). […] The plate is installed onto the system to obtain a baseline reading. […]

[2] = biological target: T2, 24-hydroxylated vitamin D compound receptor (FAM57B) (Mus musculus, UniProt Q7TNV1); experiment: [3H]-24,25(OH)2D3 binding assay on membrane fractions of transfected COS-7 cells; conditions: for displacement of [3H]-24,25(OH)2D3 specific binding by excess cold compound: membrane fractions, excess of nonradioactive competitor; for specific binding of radioligand to receptor (saturation): membrane fractions of COS-7 cells expressing FAM57B
T2 construct: The full-length 24-hydroxylated vitamin D compound receptor was subcloned into the pcDNA3.1 expression vector; expressed in transfected cells; host or cells: COS-7 cells, stably transfected (pcDNA3.1)
T2 sequence (Q7TNV1 1-275 isoform Q7TNV1-3): T1 sequence (Q7TNV1 1-275 isoform Q7TNV1-3)
Protocol: Membrane fractions of transfected COS-7 cells are prepared by differential centrifugation (66): cells are homogenized in buffer A (25 mM HEPES, 10 mM NaCl, 1 mM DTT at pH 7.4) and centrifuged at 20,000 g for 10 minutes. The resulting supernatant is then re-centrifuged at 20,000 g for 2×30 minutes. The resulting pellet is resuspended in buffer B (25 mM HEPES, 50 mM NaCl, 5 mM EDTA, 1 mM DTT at pH 7.4) and is used as a membrane fraction for binding assays.
Binding assays are performed on ice for 60 min in buffer B using [^3H]-24R,25(OH)2D3 (50 Ci/mmol; Amersham) in the presence or absence of a 200-fold excess of nonradioactive 24,25(OH)2D3. Bound and free ligand are separated by filtration on glass microfiber filters soaked in buffer B. The filters are rinsed with 10 ml of buffer B and are counted for radioactivity using a scintillation counter (36, 37, 66). Specific binding is then calculated as total binding minus non-specific binding measured in the presence of the excess of nonradioactive ligand.
Saturation binding analysis is performed using 100 μg of membrane fraction and 0.1 to 5 nM of [^3H]-24R,25(OH)2D3 and plotting specific binding as a function of ligand concentration (FIG. 4A). Saturation binding is repeated several times to minimize intra-assay variation and calculate binding affinity with accuracy. Affinity is determined using the saturation binding algorithm of the Prism software (GraphPad Software Inc., LaJolla, Calif.).
Binding specificity is further refined by performing competition binding assays on the membrane fractions with various nonradioactive vitamin D metabolites and other steroids (FIG. 4B). Binding is performed using 1 nM of [^3H]-24R,25(OH)2D3 and 100 μg of membrane fraction. Compete binding is done using 10-200 fold excess of 24,25(OH)2D3 (control displacement curve). Compete binding is also done using 10-200 fold excess of 25(OH)D3, 24S,25(OH)2D3 (the non-natural epimer of 24,25(OH)2D3), 1α(OH)D2, 1α,24(OH)D2, 1,24,25(OH)3D3, as well as dexamethasone, estradiol, and testosterone.

wild-type mice = conditions: cited from earlier work
rats = conditions: cited from earlier work
rat = rat studies; cited from earlier work

Molecule: C=C1/C(=C\C=C2/CCC[C@]3(C)[C@@H]([C@H](C)CCCC(C)(C)O)CC[C@@H]23)C[C@@H](O)C[C@@H]1O [1α,25-(OH)2D3, reference compound]
- effect on fracture repair (Cyp24a1-deficient mice): no effect
- healing (mechanical properties of healed bones) (chickens): poor healing

- changes in bioimpedance (dZiec), representative of binding [1]: specifically binds
- changes in bioimpedance (dZiec), representative of binding ([1]; listed as 24R,25(OH)2D3): binding activity specific
- displacement of [3H]-24,25(OH)2D3 specific binding by excess cold compound [2]: can be displaced
Molecule: C=C1CC[C@H](O)C/C1=C/C=C1\CCC[C@]2(C)[C@@H]([C@H](C)CC[C@@H](O)C(C)(C)O)CC[C@@H]12 [24,25-(OH)2D3]
- luciferase reporter fold-induction over treatment with vehicle (ATF response element): statistically significant
- type X collagen mRNA expression (Cyp24a1-deficient mice; all time points studied): rescued and normalized
- histological appearance of the callus (Cyp24a1-deficient mice; daily injection 6.7 μg/kg): normalized
- static histomorphometric index (BV/TV) (Cyp24a1-deficient mice; daily injection 6.7 μg/kg, callus at 14 days post-osteotomy): normalized
- effect on fracture repair (Cyp24a1-deficient mice): rescue; also recorded: corrected
- effect on fracture repair (Cyp24a1-deficient mice; listed as 24,25(OH)2D3): rescued

- displacement of [3H]-24,25(OH)2D3 specific binding by excess cold compound [2]: not
Molecule: CC(=O)[C@H]1CC[C@H]2[C@@H]3CCC4=CC(=O)CC[C@]4(C)[C@H]3CC[C@]12C [progesterone]

Molecule: CC(C)NCC(O)COc1cccc2ccccc12 (centres unmarked) [propranolol]
- bone mass (wild-type mice): increase bone mass
- bone defects (rats): repair bone defects

- specific binding of radioligand to receptor (saturation) [2]: specific and saturable
- specific binding of radioligand to receptor (saturation) ([2]; listed as [^3H]-24,25(OH)2D3): saturable
Molecule: [^3H]-24R,25-(OH)2D3

B1: parathyroid hormone (protein, UniProt P01270 32-115, looked up)
Parathyroid hormone: SVSEIQLMHNLGKHLNSMERVEWLRKKLQDVHNFVALGAPLAPRDAGSQRPRKKEDNVLVESHEKSLGEADKADVNVLTKAKSQ
modifications: Parathyroid hormone
notes: parathyroid hormone administered in rat fracture studies
- fracture repair (rat): improve fracture repair
